#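 A five-concentration, 48-hour dose response in 96-well plates underlies each endpoint, interpolated linearly between surrounding concentrations. Here, GI50 denotes the concentration required for 50% inhibition of growth.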 Activity calls are given as the source filed them. Cut-off read from the data, not from the text of the source: active = GI50 up to about 1.1 µM and inactive = higher.
# Experiments:
# Assay in all cases: NCI tumour cell line growth inhibition, 48 h
# UO-31 = tested on: UO-31
# MDA-MB-231 = tested on: MDA-MB-231
# HOP-62 = tested on: HOP-62
# MDA-MB-435 = tested on: MDA-MB-435
# HOP-92 = tested on: HOP-92
# MOLT-4 = tested on: MOLT-4
# CCRF-CEM = tested on: CCRF-CEM
# A498 = tested on: A498
# KM12 = tested on: KM12
# SF-539 = tested on: SF-539
# NCI-H522 = tested on: NCI-H522
# SN12C = tested on: SN12C
# SF-295 = tested on: SF-295
# OVCAR-5 = tested on: OVCAR-5
# BT-549 = tested on: BT-549
# HCT-15 = tested on: HCT-15
# ACHN = tested on: ACHN
# SK-MEL-2 = tested on: SK-MEL-2
# T47D = tested on: T47D
# IGROV-1 = tested on: IGROV-1
SMILES,GI50 (UO-31),GI50 (MDA-MB-231),GI50 (HOP-62),GI50 (MDA-MB-435),GI50 (HOP-92),GI50 (MOLT-4),GI50 (CCRF-CEM),GI50 (A498),GI50 (KM12),GI50 (SF-539),GI50 (NCI-H522),GI50 (SN12C),GI50 (SF-295),GI50 (OVCAR-5),GI50 (BT-549),GI50 (HCT-15),GI50 (ACHN),GI50 (SK-MEL-2),GI50 (T47D),GI50 (IGROV-1)
O=C(O)C(O)C(O)C(O)C(O)CO.[Ba+2] (configuration not stated),> 100 µM (inactive),> 100 µM (inactive),> 100 µM (inactive),> 100 µM (inactive),> 100 µM (inactive),> 100 µM (inactive),> 100 µM (inactive),> 100 µM (inactive),> 100 µM (inactive),> 100 µM (inactive),> 100 µM (inactive),> 100 µM (inactive),> 100 µM (inactive),> 100 µM (inactive),> 100 µM (inactive),> 100 µM,> 100 µM (inactive),> 100 µM (inactive),> 100 µM (inactive),> 100 µM (inactive)
COC(=O)/C=C(\C(=O)OC)c1cc(C)c2cc(C(C)C)ccc(C)c1-2,20.5 µM (inactive),24.7 µM (inactive),34.8 µM (inactive),30 µM (inactive),24.5 µM (inactive),> 100 µM (inactive),71.4 µM (inactive),> 100 µM (inactive),37.4 µM (inactive),30.5 µM (inactive),13.1 µM (inactive),53.3 µM (inactive),41.7 µM (inactive),> 100 µM (inactive),39.6 µM (inactive),11.7 µM,25.6 µM (inactive),34.8 µM (inactive),15.4 µM (inactive),85.9 µM (inactive)
COc1ccc2c(c1)OCC1Cc3ccccc3OC21 (configuration not stated),> 100 µM (inactive),> 100 µM (inactive),> 100 µM (inactive),> 100 µM (inactive),> 100 µM (inactive),54.1 µM (inactive),> 100 µM (inactive),> 10 µM (inactive),74 µM (inactive),> 100 µM (inactive),> 100 µM (inactive),> 100 µM (inactive),> 100 µM (inactive),> 100 µM (inactive),> 100 µM (inactive),> 100 µM,> 100 µM (inactive),> 100 µM (inactive),> 100 µM (inactive),> 100 µM (inactive)
CCCOc1cc2c(cc1O)CC[C@@H]1[C@@H]2CC[C@]2(C)[C@@H](O)CC[C@@H]12,4.95 µM (inactive),5.56 µM (inactive),2.21 µM (inactive),0.284 µM (active),10.3 µM (inactive),0.946 µM (active),1.56 µM (inactive),5.37 µM (inactive),4.15 µM (inactive),1.48 µM (inactive),0.383 µM (active),4.97 µM (inactive),2.76 µM (inactive),27.4 µM (inactive),0.524 µM (active),0.687 µM,5.2 µM (inactive),2.17 µM (inactive),3.19 µM (inactive),5.48 µM (inactive)
Cc1sc(Nc2ccc(Nc3nc(-c4ccccc4)c(C)s3)cc2)nc1-c1ccccc1,89.7 µM (inactive),42 µM (inactive),> 100 µM (inactive),> 100 µM (inactive),> 100 µM (inactive),17.1 µM (inactive),2.29 µM (inactive),21.8 µM (inactive),> 100 µM (inactive),26.3 µM (inactive),35.4 µM (inactive),31.3 µM (inactive),95.9 µM (inactive),> 100 µM (inactive),> 100 µM (inactive),44.8 µM,36.5 µM (inactive),21.7 µM (inactive),8.95 µM (inactive),> 100 µM (inactive)
CN1C(=O)C(=CNc2ccc(Cl)cc2Cl)C(=O)N(C)C1=O,> 100 µM (inactive),> 100 µM (inactive),> 100 µM (inactive),> 100 µM (inactive),> 100 µM (inactive),66.5 µM (inactive),13.9 µM (inactive),> 100 µM (inactive),> 100 µM (inactive),> 100 µM (inactive),> 100 µM (inactive),> 100 µM (inactive),> 100 µM (inactive),> 100 µM (inactive),> 100 µM (inactive),> 100 µM,> 100 µM (inactive),> 100 µM (inactive),> 100 µM (inactive),> 100 µM (inactive)
COc1cc(OCCN(C)C)c2[nH]c(C(=O)N3CC(CCl)c4c3cc(N)c3ccccc43)cc2c1 (configuration not stated),< 0.01 µM (active),< 0.01 µM (active),< 0.01 µM (active),< 0.01 µM (active),< 0.01 µM (active),–,< 0.01 µM (active),< 0.01 µM (active),< 0.01 µM (active),< 0.01 µM (active),< 0.01 µM (active),< 0.01 µM (active),< 0.01 µM (active),< 0.01 µM (active),0.0268 µM (active),< 0.01 µM,< 0.01 µM (active),< 0.01 µM (active),0.0139 µM (active),< 0.01 µM (active)
OCc1ccc2c(c1)CC1(C2)Cc2cc3c(cc2C1O)CCC3 (configuration not stated),5.9 µM (inactive),2.65 µM (inactive),4.49 µM (inactive),0.65 µM (active),12.2 µM (inactive),4.09 µM (inactive),4.01 µM (inactive),4.44 µM (inactive),2.87 µM (inactive),3.5 µM (inactive),3.23 µM (inactive),3.22 µM (inactive),2.2 µM (inactive),18.9 µM (inactive),2.86 µM (inactive),3.36 µM,6.67 µM (inactive),3.33 µM (inactive),1.36 µM (inactive),4.84 µM (inactive)
O=C(O)C1CCCCC1c1c2ccc(=O)cc-2oc2cc(O)ccc12 (configuration not stated),61 µM (inactive),30.8 µM (inactive),–,13.4 µM (inactive),12 µM (inactive),23.8 µM (inactive),42.8 µM (inactive),37.8 µM (inactive),19.9 µM (inactive),18 µM (inactive),17.7 µM (inactive),41.7 µM (inactive),31.7 µM (inactive),29.4 µM (inactive),47.6 µM (inactive),34.6 µM,31.8 µM (inactive),29.4 µM (inactive),19.1 µM (inactive),12.9 µM (inactive)
CCNC(=O)OCC1C2=C(C(=O)C(C)=C(N)C2=O)N2CC3C(N3C)C12OC (configuration not stated),19.5 µM (inactive),> 100 µM (inactive),6.44 µM (inactive),75.7 µM (inactive),> 75 µM (inactive),3.28 µM (inactive),4.21 µM (inactive),20.9 µM (inactive),–,16.6 µM (inactive),11.7 µM (inactive),13.5 µM (inactive),7.76 µM (inactive),> 72.6 µM (inactive),11.5 µM (inactive),14.6 µM,4.22 µM (inactive),30.3 µM (inactive),55.2 µM (inactive),18.5 µM (inactive)
c1cncc(CNc2ncn[nH]2)c1,> 100 µM (inactive),> 100 µM (inactive),> 100 µM (inactive),> 100 µM (inactive),> 100 µM (inactive),> 100 µM (inactive),–,> 100 µM (inactive),> 100 µM (inactive),> 100 µM (inactive),> 100 µM (inactive),> 100 µM (inactive),> 100 µM (inactive),> 100 µM (inactive),> 100 µM (inactive),> 100 µM,> 100 µM (inactive),> 100 µM (inactive),> 100 µM (inactive),> 100 µM (inactive)
COC(=O)/C(C#N)=C(/NCc1ccccc1)Nc1ccccc1,37.6 µM (inactive),69.7 µM (inactive),> 100 µM (inactive),> 100 µM (inactive),81.7 µM (inactive),30.1 µM (inactive),–,> 100 µM (inactive),–,> 100 µM (inactive),55.7 µM (inactive),> 100 µM (inactive),46.1 µM (inactive),> 100 µM (inactive),> 100 µM (inactive),83.2 µM,> 100 µM (inactive),> 100 µM (inactive),79.3 µM (inactive),> 100 µM (inactive)
C[C@H](C/C=C/C(C)(C)O)[C@H]1CC[C@@]2(C)[C@@H]3CC[C@H]4C(C)(C)[C@@H](O)CC[C@@]45C[C@@]35CC[C@]12C,23.3 µM (inactive),15.4 µM (inactive),13.6 µM (inactive),20.5 µM (inactive),11.3 µM (inactive),9.91 µM (inactive),–,21 µM (inactive),24.7 µM (inactive),16.8 µM (inactive),2.37 µM (inactive),13 µM (inactive),16.6 µM (inactive),14.4 µM (inactive),34.1 µM (inactive),17.1 µM,6.35 µM (inactive),17.3 µM (inactive),27 µM (inactive),22.4 µM (inactive)
COc1ccc(-c2[nH]c3c4c(nc5c(c24)C(=O)CC(C)(C)C5)CC(C)(C)C3)cc1,61.1 µM (inactive),50.9 µM (inactive),> 100 µM (inactive),50.2 µM (inactive),39.6 µM (inactive),7.03 µM (inactive),11.4 µM (inactive),28.6 µM (inactive),40.4 µM (inactive),67.6 µM (inactive),54.5 µM (inactive),38.9 µM (inactive),57.4 µM (inactive),> 100 µM (inactive),43.9 µM (inactive),54.2 µM,95.5 µM (inactive),39.7 µM (inactive),44.5 µM (inactive),–

# — ChEMBL document CHEMBL1201862, “PubChem BioAssay data set” (2004)
